Assay results as given in patent publication US11981953B2, “Method to screen compounds for antifungal activity and pharmaceutical compositions and methods to treat fungal diseases by inhibiting spore germination” (WISCONSIN ALUMNI RESEARCH FOUNDATION, priority 2018, dated 2024).
Where a name gives a salt, the structure may show the parent alone. Read-outs that look alike come from different tables or passages of the source.

Assays:
Type in all cases: cell-based
[1] = test system: Cryptococcus neoformans spore germination; assay: High throughput nanoluciferase screen of spore germination (L1300 Selleck FDA-Approved Drug Library)
Description: (§1) To identify inhibitors of Cryptococcus neoformans spore germination, a high throughput screen was developed that utilizes a nanoluciferase construct to monitor whether spores germinate in the presence of inhibitor. Briefly a protein luciferase construct was created resulting in a low luciferase signal for non-germinated spores and a high signal from germinated and replicating cells. The screen was coupled with OD600 readings to monitor the ability of compounds to inhibit yeast replication. The examples focused on FDA-approved drugs, as these drugs have the potential of being repurposed into antifungal therapeutics. To determine whether any FDA-approved drugs were able to inhibit Cryptococcus neoformans spore germination and yeast replication, the aforementioned high throughput screen was performed on the L1300 Selleck FDA-Approved Drug Library containing an array of 1108 compounds. This library of compounds is available commercially from Selleck Chemicals, 14408 W Sylvanfield Drive, Houston, Tex. 77014, USA.
(§2) The screening was successful at identifying known antifungal drugs as inhibitors of yeast replication as indicated by an OD600 signal of less than 75% of the negative control (Table 2). For the purpose of these examples, antifungal drugs were defined as any FDA-approved drug used in the treatment of fungal infections. Of these 23 known antifungal drugs, only six (6) were identified as inhibitors of spore germination, indicated by a luciferase signal of less than 30% of the negative control.

[2] = test system: Cryptococcus neoformans yeast replication; conditions: signal relative to negative control
Description: as §1, §2

[3] = test system: Cryptococcus neoformans (JEC21); assay: MIC/MFC experiments (EUCAST based), JEC21; conditions: for Ability to inhibit yeast growth / replication in MIC and MFC testing: yeast strain not given, data not shown for non-inhibitors; for MFC: Cryptococcus neoformans
Description: (§3) All minimum inhibitory concentration (MIC) experiments were based on EUCAST methodology. […] After 6-hour incubation, yeast cells were washed in 1×PBS and quantified using a hemocytometer. […] Cryptococcus neoformans cells were incubated for 2 days at 30° C. while Candida albicans strains were incubated for 2 days at 35° C. OD600 readings were used to assess the MIC values for each drug. To determine minimum fungicidal concentrations (MFC) values, 3 μL per well were plated on YPD and allowed to grow for 2 days.

[4] = test system: Cryptococcus neoformans (H99); assay: MIC/MFC experiments (EUCAST based), H99; conditions: 48 h; for MFC: Cryptococcus neoformans
Description: as §3

[5] = test system: Candida albicans (SC5314); assay: MIC/MFC experiments (EUCAST based), Candida albicans; conditions: SC5314, 48 h
Description: as §3

[6] = test system: Aspergillus Fumigatus (AF293); assay: Aspergillus fumigatus MIC on conidia; conditions: Aspergillus fumigatus; Table 4; conidia; lowest concentration with complete absence of germ tubes or hyphae; read-out: MIC
Description: Conidia at a final concentration of 2×10^4 cells were incubated in RPMI, 0.33 M MOPS, and 2% glucose at pH 7 at varying concentrations of inhibitors, with a final volume of 200 μL.

[7] = test system: Cryptococcus neoformans spores (JEC20 x JEC21); assay: Quantitative germination assay (microfluidic devices, cell size and shape)
Description: All germination assays are based on Barkal et al., 2016. Briefly, microfluidic devices were loaded with 1×10^5 spores, and at 0 hours, SD media with drug of interest, were added to the sample. Spores were allowed to germinated at 30° C. in a humidified chamber and cells were monitored every two (2) hours for 16 hours. Each assay was performed in two (2) individual wells with three (3) field of views acquired from each well. All images were analyzed as previously described based on cell shape and size. Population ratio of spores, intermediate, and yeast cells were determined. Error bars in plots are based on variation between all fields of view acquired. […] After the 16-hour experiment, samples were plated on YPD and allowed to grow at 30° C. to determine if drugs were completely germicidal or not based on lack of growth. If assays were unable to be performed in microfluidic devices, the […] spores were incubated in identical conditions outside of PDMS devices and only loaded into devices for image acquisition.

[8] = Table 2, antifungal drugs, signal relative to negative control, less than 30% = inhibitor of germination
[9] = Table 2, antifungal drugs, less than 75% = inhibitor of yeast replication
[10] = Table 3, other FDA-approved drugs
[11] = Table 3, other FDA-approved drugs, signal relative to negative control
[12] = Table 4, plated on YPD, 2 days, read-out: MFC

Molecule	Germination Percent Luciferase Signal [1, 8]	Replication Percent OD600 [2, 9]	Replication Percent OD600 [2, 10]	also measured
CCC(C)(C)c1ccc(CC(C)CN2C[C@@H](C)O[C@@H](C)C2)cc1 (stereo partly drawn) [Amorolfine HCl]	88.6%	41.4%	–	–
C[C@@H]1[C@H](O)[C@@H](C)/C=C/C=C/C=C/C=C/C=C/C=C/C=C/[C@H](O[C@@H]2O[C@H](C)[C@@H](O)[C@H](N)[C@@H]2O)C[C@@H]2O[C@](O)(C[C@@H](O)C[C@@H](O)[C@H](O)CC[C@@H](O)C[C@@H](O)CC(=O)O[C@H]1C)C[C@H](O)[C@H]2C(=O)O [Amphotericin B]	84.6%	45.7%	–	–
CC(C)(C)CC(C)(C)c1ccc(OCCOCC[N+](C)(C)Cc2ccccc2)cc1 [Benzethonium chloride]	–	–	30.3%	Germination Percent Luciferase Signal [1]: 6.9%
OC(CCN1CCCCC1)(c1ccccc1)C1CC2C=CC1C2 (stereo not drawn) [Biperiden HCl]	–	–	56.6%	Germination Percent Luciferase Signal [1, 11]: 23.4%; Ability to inhibit yeast growth / replication in MIC and MFC testing [3]: unable to inhibit yeast growth
CN(Cc1ccc(C(C)(C)C)cc1)Cc1cccc2ccccc12 [Butenafine HCl]	57.5%	32.9%	–	–
Clc1ccc(CCC(Cn2ccnc2)Sc2c(Cl)cccc2Cl)cc1 (stereo not drawn) [Butoconazole nitrate]	41.5%	33.4%	–	–
CCCCCCCCCCCCCCCC[N+](C)(C)C.[Br-] [Cetrimonium bromide]	–	–	63.2%	Germination Percent Luciferase Signal [1, 11]: 4.4%
CCCCCCCCCCCCCCCC[n+]1ccccc1 [Cetylpyridinium chloride]	–	–	31.9%	Germination Percent Luciferase Signal [1]: 4.2%; MFC ([3]; 48 h): < 0.78 µg/mL; MFC [4]: < 0.78 µg/mL; MFC [5]: 3.13 µg/mL
CC(C)(C)C(=O)C(Oc1ccc(Cl)cc1)n1ccnc1 (stereo not drawn) [Climbazole]	151.5%	38.9%	–	–
Clc1ccccc1C(c1ccccc1)(c1ccccc1)n1ccnc1 [Clotrimazole]	65.9%	34.1%	–	–
Cc1cc(N)c2ccccc2[n+]1CCCCCCCCCC[n+]1c(C)cc(N)c2ccccc21 [Dequalinium chloride]	–	–	47.9%	Germination Percent Luciferase Signal [1, 11]: 22.3%
CCCCCCCCCCCC[N+](C)(C)CCOc1ccccc1 [Domiphen bromide]	–	–	63.9%	Germination Percent Luciferase Signal [1, 11]: 4.4%
C=C1/C(=C\C=C2/CCC[C@]3(C)[C@@H]([C@H](C)/C=C/[C@H](C)C(C)C)CC[C@@H]23)C[C@@H](O)C[C@@H]1O [Doxercalciferol]	–	–	55.2%	Germination Percent Luciferase Signal [1, 11]: 17.1%
CO[C@H]1C[C@@H]2CC[C@@H](C)[C@@](O)(O2)C(=O)C(=O)N2CCCC[C@H]2C(=O)O[C@H]([C@H](C)C[C@@H]2CC[C@@H](OCCO)[C@H](OC)C2)CC(=O)[C@H](C)/C=C(\C)[C@@H](O)[C@@H](OC)C(=O)[C@H](C)C[C@H](C)/C=C/C=C/C=C/1C [Everolimus]	–	–	67.7%	Germination Percent Luciferase Signal [1, 11]: 15.7%
O=C1[C@H](CC[C@H](O)c2ccc(F)cc2)[C@@H](c2ccc(O)cc2)N1c1ccc(F)cc1 [Ezetimibe]	–	–	51.3%	Germination Percent Luciferase Signal [1, 11]: 22.0%; Ability to inhibit yeast growth / replication in MIC and MFC testing [3]: unable to inhibit yeast growth
Clc1ccc(C(Cn2ccnc2)OCc2ccc(Sc3ccccc3)cc2)c(Cl)c1 (stereo not drawn) [Fenticonazole nitrate]	49.1%	36.4%	–	–
OC(Cn1cncn1)(Cn1cncn1)c1ccc(F)cc1F [Fluconazole]	84.0%	72.2%	–	–

Molecule	Germination Percent Luciferase Signal [1, 8]	Replication Percent OD600 [2, 9]	Replication Percent OD600 [2, 10]	also measured
Clc1ccc(C(Cn2ccnc2)OCc2c(Cl)cccc2Cl)c(Cl)c1 (stereo not drawn) [Isoconazole nitrate]	16.8%	37.0%	–	–
CCC(C)n1ncn(-c2ccc(N3CCN(c4ccc(OCC5COC(Cn6cncn6)(c6ccc(Cl)cc6Cl)O5)cc4)CC3)cc2)c1=O (stereo not drawn) [Itraconazole]	159.6%	58.9%	–	–
CC(=O)N1CCN(c2ccc(OCC3COC(Cn4ccnc4)(c4ccc(Cl)cc4Cl)O3)cc2)CC1 (stereo not drawn) [Ketoconazole]	154.8%	35.4%	–	–
COc1cccc(N(C)C(=S)Oc2ccc3c(c2)CCCC3)n1 [Liranaftate]	64.8%	37.6%	–	–
Clc1ccc(COC(Cn2ccnc2)c2ccc(Cl)cc2Cl)c(Cl)c1 (stereo not drawn) [Miconazole nitrate]	25.5%	38.2%	–	–
CN(C/C=C/c1ccccc1)Cc1cccc2ccccc12 [Naftifine HCl]	55.5%	34.5%	–	–
C=CC(=O)N1CCC[C@@H](n2nc(-c3ccc(Oc4ccccc4)cc3)c3c(N)ncnc32)C1 [PCl-32765]	–	–	70.3%	Germination Percent Luciferase Signal [1, 11]: 10.6%
N=C(N)c1ccc(OCCCCCOc2ccc(C(=N)N)cc2)cc1 [Pentamidine HCl]	6.5%	38.3%	–	–
N=C(N)c1ccc(OCCCCCOc2ccc(C(=N)N)cc2)cc1 [Pentamidine isethionate]	–	–	–	MIC ([3]; 48 h, Table 4, yeast, 2 days at 30° C., OD600, read-out: MIC): 1.56 µg/mL; MFC ([3]; 48 h, Table 4, plated on YPD, 2 days, read-out: MFC): 3.13 µg/mL; MIC ([4]; Table 4, yeast, 2 days at 30° C., OD600, read-out: MIC): 6.25 µg/mL; MFC [4, 12]: 6.25 µg/mL; MIC ([5]; Table 4, 2 days at 35° C., OD600, read-out: MIC): 50 µg/mL; MFC [5, 12]: 50 µg/mL; MIC [6]: > 100 µg/mL; Inhibition of spore germination, antifungal drugs ([7]; concentration not given, bifonazole and econazole nitrate tested outside the microfluidic device, imaged at 0 and 16 hours): able to successfully inhibit spore germination; Spore escape from inhibition (words) ([7]; yeast population increase = escape): none of the ˜10,000 spores showed inherent resistance and escape from inhibition
CC[C@@H]([C@H](C)O)n1ncn(-c2ccc(N3CCN(c4ccc(OC[C@@H]5CO[C@@](Cn6cncn6)(c6ccc(F)cc6F)C5)cc4)CC3)cc2)c1=O [Posaconazole]	167.2%	46.7%	–	–
CO[C@H]1C[C@@H]2CC[C@@H](C)[C@@](O)(O2)C(=O)C(=O)N2CCCC[C@H]2C(=O)O[C@H]([C@H](C)C[C@@H]2CC[C@@H](O)[C@H](OC)C2)CC(=O)[C@H](C)/C=C(\C)[C@@H](O)[C@@H](OC)C(=O)[C@H](C)C[C@H](C)/C=C/C=C/C=C/1C [Rapamycin]	–	–	61.8%	Germination Percent Luciferase Signal [1, 11]: 18.5%
Clc1ccc(CSC(Cn2ccnc2)c2ccc(Cl)cc2Cl)cc1 (stereo not drawn) [Sulconazole nitrate]	57.8%	40.9%	–	–
Clc1ccc(C(Cn2ccnc2)OCc2ccsc2Cl)c(Cl)c1 (stereo not drawn) [Tioconazoie]	25.0%	36.8%	–	–
Cc1cccc(N(C)C(=S)Oc2ccc3ccccc3c2)c1 [Tolnaftate]	60.2%	47.3%	–	–
C[C@@H](c1ncncc1F)[C@](O)(Cn1cncn1)c1ccc(F)cc1F [Voriconazole]	173.9%	35.8%	–	–
Caspofungin acetate	89.7%	48.5%	–	–
